According to PubChem BioAssay AID435002 (The Scripps Research Institute Molecular Screening Center, 2010):

System: HEK293 cells, ROS production inhibition counter-screen
Assay: HEK293 ROS counter-screen potency – cell-based, IC50, set 2, counter-screen for NOX1 inhibitor project, late-stage follow-up (AID 435002)

SMILES | IC50 [nM]
CN(C)c1ccc(NC(=O)Nc2ccc(OCc3ccccc3)cc2)cc1 | 2370
COc1cc(-c2nc(-c3ccccc3)c(-c3ccccc3)[nH]2)ccc1O | 1810
FC(F)(F)c1ccc2c(c1)Nc1ccccc1S2 | 1000
Cc1cc(Cl)ccc1NC(=S)NNC(=S)Nc1ccc(F)cc1 | 960
